Data as given in US20250144107A1, “USE OF A PIKFYVE INHIBITOR IN COMBINATION WITH IMMUNOTHERAPY” (The Regents of the University of Michigan, priority 2023, published 2025).

Experiments:
[1] = test system: NF-κB gene targets in cDCs; test: RNA-seq and gene set enrichment in cDCs; type: cell-based, mice
Protocol: FIG. 14B is a line graph of the enrichment of NF-κB target genes in DMSO or apilimod-treated, 3 hours, cDCs after 6 days of culture.
FIG. 14C is a line graph of the enrichment of NF-κB target genes in DMSO or apilimod-treated, 8 hours, cDCs after 6 days of culture.
FIG. 14H is a scatter plot of differentially expressed genes in apilimod versus DMSO-treated, 8 hours, cDCs after 6 days of culture.
FIG. 21C is a line graph of MSigDB Hallmark “TNF_SIGNALING_VIA_NFκB” in apilimod vs. DMSO-treated, 3 hours, cDCs after 6 days of culture.
FIG. 21D is a line graph of MSigDB Hallmark “TNF_SIGNALING_VIA_NFκB” in apilimod vs. DMSO-treated, 8 hours, cDCs after 6 days of culture.
The Eukaryote Total RNA Nano kit (Agilent Technologies; catalog #: 5067-1511) was used to check the quality of RNAs on an Agilent bioanalyzer. A total of 800 ng RNA was then used for library preparation with the KAPA RNA Hyper+RiboErase HMR kit (Roche Diagnostics; Catalog #: 08098140702), following the instructions from the user manual. Briefly, the ribosomal RNA was removed by enzymatic digestion, and then the RNA was fragmented to around 200-300 bp with heat in fragmentation buffer. Synthesis of cDNA was conducted with reverse transcriptase and random primer, and then the second strand was synthesized to generate double-stranded cDNA. Following the repair of the DNA ends, NEB adapter was ligated, and the DNA are amplified with the KAPA HiFi HotStart mix and NEB dual barcode. Quality of the library was checked using the bioanalyzer with the Agilent DNA 1000 Kit (Agilent Technologies; catalog #: 5067-1504), and the sequencing was performed using NovaSeq 6000. The RNA-sequencing data was analyzed with packages limma and edgeR See, e.g., Ritchie, M. E. et al., Nucleic Acids Res. 2015; 43(7):47; Phipson, B. et al., Ann. Appl. Stat. 2016; 10(2):946-963; Robinson, M. D. et al., Bioinformatics 2010; 26(1):139-40. […] The analyzed hallmark pathways were collected from the Molecular Signatures Database See, e.g., Subramanian, A. et al., Proc. Natl. Acad. Sci. USA 2005; 102(43):15545-15550; Liberzon, A. et al., Cell Syst. […]

[2] = test system: tumor infiltrating DCs in B16F10 tumors; test: Tumor infiltrating DCs in B16F10 tumors of PIKfyve KO or WT mice; type: in vivo; details: for percentage of cDC1s: 30 mg/kg daily
Protocol: FIG. 15E is a box and whisker plot of the XCR1 median fluorescent intensity by % cDC1 subset in B16F10 tumor model treated with vehicle or apilimod, 30 mg/kg daily.
FIG. 15F is a series of three box and whisker plot of the XCR1 median fluorescent intensity by all DCs, cDC1 or cDC2 subset in PIKfyve KO mice or WT mice treated with vehicle or apilimod, 30 mg/kg daily.
FIG. 23F is a box and whisker plot of the % cDC2 of all DC cells in PIKfyve KO mice or WT mice treated with vehicle or apilimod, 30 mg/kg daily.
FIG. 23G is a series of three box and whisker plots of the SIRP1α median fluorescent intensity by all DC, cDC1 or cDC2 subset in PIKfyve KO mice or WT mice treated with vehicle or apilimod, 30 mg/kg daily.

[3] = test system: subcutaneous B16F10 tumors; test: Subcutaneous B16F10 tumor model; type: in vivo, mice
Protocol: FIG. 15D is a line graph of the subcutaneous tumor volume of B16F10 tumors in PIKfyve KO mice or WT mice treated with anti-PD1 antibody, 200 μg every 3 days, or isotype control after 15 days.
FIG. 16D is a line graph of the subcutaneous tumor volume of B16F10 tumors in mice treated with vehicle or apilimod, 30 mg/kg daily, in wild-type or Batf3^−/− mice.
FIG. 26E is a line graph of the subcutaneous tumor volume of B16F10 tumors in mice treated with vehicle or apilimod, 30 mg/kg daily, in NSG™ mice.
FIG. 26F is a line graph of the subcutaneous tumor volume of B16F10 tumors in mice treated with vehicle versus apilimod, 30 mg/kg daily, in NSG™ mice.

B16F10-OVA tumors = test: B16F10-OVA tumor model with PolyI:C adjuvant; type: in vivo, mice
Protocol: FIG. 16F is a series of four line graphs of the Individual growth curves of subcutaneous B16F10-OVA tumor volume following 21 days of pre-treatment with vehicle versus apilimod, 30 mg/kg daily, with or without subcutaneous injection of water versus PolyI:C, 100 μg on Day 1 and Day 14.
FIG. 16H is a series of four line graphs of the Individual growth curves of subcutaneous B16F10-OVA tumor volume in mice treated with vehicle or apilimod, 30 mg/kg daily, with or without a subcutaneous injection of water versus PolyI:C, 100 μg once weekly.
FIG. 26I is a line graph of the subcutaneous tumor volume of B16F10-OVA tumors following 21 days of pre-treatment with vehicle versus apilimod, 30 mg/kg×5 days/week, with or without subcutaneous injection of water versus PolyI:C, 100 μg on Day 1 and Day 14.
FIG. 26J is a line graph of the subcutaneous tumor volume of B16F10-OVA tumors in mice treated with vehicle or apilimod, 30 mg/kg×5 days/week, with or without subcutaneous injection of water versus PolyI:C, 100 μg once weekly.

[4] = reported, Ikonomov et al. 2019; cited from earlier work

Cc1cccc(/C=N/Nc2cc(N3CCOCC3)nc(OCCc3ccccn3)n2)c1 [apilimod, N-[(E)-(3-methylphenyl)methylideneamino]-6-morpholin-4-yl-2-(2-pyridin-2-ylethoxy)pyrimidin-4-amine]
enrichment of TNF_SIGNALING_VIA_NFκB gene set ([1]; 3 and 8 hours, vs DMSO): positive enrichment
Sqstm1 expression ([1]; 8 hours, vs DMSO): most significantly upregulated gene
enrichment of direct NF-κB gene targets ([1]; early time points): positively enriched
percentage of cDC1s ([2]; KO mice): no additional increase
total surface XCR1 expression, differences between groups compared with cDC1 percentage ([2]; WT and KO mice): the same
percentage of cDC1s ([2]; WT mice): increased
percentage of cDC2s or total surface SIRP1α expression ([2]; between any groups): no changes
efficacy in Batf3−/− mice ([3]; Batf3−/− mice): lost
efficacy in NSG mice ([3]; NSG mice): lost
B16F10 tumor growth ([3]; WT, non-transgenic mice, vs vehicle): reduced
subsequent tumor growth (B16F10-OVA tumors; 21 days pre-treatment, combination of apilimod and PolyI:C, vs control or either agent alone): decrease
tumor growth inhibition (B16F10-OVA tumors; treatment after inoculation, combination of apilimod and PolyI:C): further potentiated
tumor growth (B16F10-OVA tumors; treatment after inoculation, each agent alone): modest tumor growth inhibition
stability [4]: instability
